Data reported in patent US20070149525A1, “Methods of treating amyloidosis using aryl-cyclopropyl derivative aspartyl protease inhibitors” (priority 2005, published 2007).
“And” between values parts separate entries of the source, which are not always exact repeats. Equal entries are not always repeated.

Assays:
[1] = Brain to plasma ratio in female FVB mice; format: in vivo; details: 100 mpk dose
[2] = system: beta-secretase (BACE) versus cathepsin D (catD); test: CatD/BACE selectivity (ratio of IC50 values); format: biochemical; details: each value average of four experimental runs; multiple values = more than one experiment
Method: Investigation of potential beta-secretase inhibitors produced compounds with increased selectivity for beta-secretase over other aspartyl proteases such as cathepsin D (catD), cathepsin E (catE), Human Immunodeficiency Viral (HIV) protease, and renin. Selectivity was calculated as a ratio of inhibition (IC50) values in which the inhibition of beta-secretase was compared to the inhibition of other aspartyl proteases.
The compounds of formula (I) can be selective for beta-secretase versus catD.
In the following examples, each value is an average of four experimental runs and multiple values for one compound indicate that more than one experiment was conducted.

[3] = system: Madin-Darby Canine Kidney (MDCK) cells; test: In vitro permeability across MDCK cell monolayer; format: in vitro ADME; details: test compound 5 μM, 2 h at 37° C., apical to basolateral
Method: (§1) Compounds were evaluated for permeability across a monolayer of Madin-Darby Canine Kidney (MDCK) cells in a transwell device following culturing for 4 days. […] A 0.5 mL of cell suspension (400,000 cells/mL) was placed on membrane and a 1.5 mL media in the bottom wells on day 1. On day 2 and day 3, cells were fed with new media. […] Media was removed from upper chambers and filled with mHBSS with or without CspA, and incubated 30 min at 37° C. with light shaking. Donor chambers were emptied, and filled with test compound at 5 μM in mHBSS. […] Plates were incubated for 2 h at 37° C. with shaking. After 2 h, both the donor and receiver wells were sampled. The bottom chambers were read in a fluorometer to assess LY leakage, and then the media from all wells were assayed by LC/MS/MS to determine compound levels.

[4] = In vitro permeability across MDCK cell monolayer; format: in vitro ADME, Canine; details: dog, MDCK, test compound 5 μM, 2 h at 37° C., apical to basolateral, read-out: Permeability Forward A > B
Method: as §1

[5] = system: P-gp; details: mdr1 a/b (-/-) and FVB wild-type, mouse, not told, iv, 2.5 mg/kg, 5 min
Method: Use of mdr1 (−/−) mouse and its FVB wild-type littermates, which expresses P-gp at their blood-brain barrier (BBB), can distinguish between a test compound of high P-gp liability from one with a more desirable low P-gp liability.
Test compounds are administered to both the mdr1 a/b (−/−) and the FVB wild-type mice (N=4/strain) intravenously at 2.5 mg/Kg through the tail vein. Plasma and brains are harvested at 5 min post administration. Test compound is extracted from tissue in parallel with calibration curves prepared from age-matched control tissues, then quantitated by LC/MS/MS. The ratio of brain concentration (Cb) to plasma concentration (Cp) is used as a measure of brain penetration according to the following formula: Brain Penetration (P)=Cb/Cp Therefore, a measure of brain penetration in the mdr1 (−/−) mouse relative to that of the wild-type animal represents an assessment of in vivo P-gp efflux, which is analogous to that determine in vitro with MDR1-MDCK cells. Calculations are made according to the following formula: Pmdr1/PFVB=In vivo Efflux

Compound | Selectivity IC50 catD/IC50 BACE [2] | Permeability Forward A > B [3] | also measured
CC(=O)NC(Cc1cc(F)cc(F)c1)C(O)CNC1(c2cccc(C(C)(C)C(F)F)c2)CC1 (centres unmarked) [23.57] |  |  | Brain AUC (0-6 h) [1]: 57 µM·h; Kp ([1]; mouse, brain and plasma, 100 mg/kg, AUC (0-6 h)): 0.7; AUC(0-t) ([1]; mouse, plasma, 100 mg/kg, read-out: Plasma AUC (0-6 h)): 86 µM·h
CC(=O)NC(Cc1cc(F)cc(F)c1)C(O)CNC1(c2cccc(C3CC4CCC3C4)c2)CC1 (centres unmarked) [Example 23.1, N-(4-(1-(3-(bicyclo[2.2.1]heptan-2-yl)phenyl)cyclopropylamino)-1-(3,5-difluorophenyl)-3-hydroxybutan-2-yl)acetamide] | 3.4 |  | 
CC(=O)NC(Cc1cc(F)cc(F)c1)C(O)CNC1(c2cccc(C3CCCC3)c2)CC1 (centres unmarked) [Example 23.2, N-(4-(1-(3-cyclopentylphenyl)cyclopropylamino)-1-(3,5-difluorophenyl)-3-hydroxybutan-2-yl)acetamide] | 13.0 |  | 
CC(=O)NC(Cc1cc(F)cc(F)c1)C(O)CNC1(c2cc(O)cc(CC(C)(C)C)c2)CC1 (centres unmarked) [Example 23.3, N-(1-(3,5-difluorophenyl)-3-hydroxy-4-(1-(3-hydroxy-5-neopentylphenyl)cyclopropylamino)butan-2-yl)acetamide] | 1.5 |  | 
CC(=O)NC(Cc1cc(F)cc(F)c1)C(O)CNC1(c2ccn(CC(C)(C)C)n2)CC1 (centres unmarked) [Example 23.4, N-(1-(3,5-difluorophenyl)-3-hydroxy-4-(1-(1-neopentyl-1H-pyrazol-3-yl)cyclopropylamino)butan-2-yl)acetamide] | 3.5 |  | 
CC(=O)NC(Cc1cc(F)cc(F)c1)C(O)CNC1(c2cnn(C(C)(C)C)c2)CC1 (centres unmarked) [Example 23.5, N-(4-(1-(1-tert-butyl-1H-pyrazol-4-yl)cyclopropylamino)-1-(3,5-difluorophenyl)-3-hydroxybutan-2-yl)acetamide] | 6.0 |  | 
CC(=O)NC(Cc1cc(F)cc(F)c1)C(O)CNC1(c2csc(C(C)(C)C)c2)CC1 (centres unmarked) [Example 23.6, N-(4-(1-(5-tert-butylthiophen-3-yl)cyclopropylamino)-1-(3,5-difluorophenyl)-3-hydroxybutan-2-yl)acetamide] | 1.6 and 0.9 |  | 
CC(=O)NC(Cc1cc(F)cc(F)c1)C(O)CNC1(c2cccc(C(C)C(F)(F)F)c2)CC1 (centres unmarked) [Example 23.7, N-(1-(3,5-difluorophenyl)-3-hydroxy-4-(1-(3-(1,1,1-trifluoropropan-2-yl)phenyl)cyclopropylamino)butan-2-yl)acetamide] | 1.7 |  | 
O=C(Cc1nnn[nH]1)NC(Cc1cc(F)cc(F)c1)C(O)CNC1(c2cccc(-n3cccn3)c2)CC1 (centres unmarked) [Example 23.8, N-(4-(1-(3-(1H-pyrazol-1-yl)phenyl)cyclopropylamino)-1-(3,5-difluorophenyl)-3-hydroxybutan-2-yl)-2-(1H-tetrazol-5-yl)acetamide] | 3.3 |  | 
O=C(O)CCCC(=O)NC(Cc1cc(F)cc(F)c1)C(O)CNC1(c2cccc(-n3cccn3)c2)CC1 (centres unmarked) [Example 23.9, 4-(4-(1-(3-(1H-pyrazol-1-yl)phenyl)cyclopropylamino)-1-(3,5-difluorophenyl)-3-hydroxybutan-2-ylcarbamoyl)butanoic acid] | 2.6 |  | 
CC(=O)NC(Cc1cc(F)cc(F)c1)C(O)CNC1(c2cccc(-n3cccn3)c2)CC1 (centres unmarked) [Example 23.11, N-(4-(1-(3-(1H-pyrazol-1-yl)phenyl)cyclopropylamino)-1-(3,5-difluorophenyl)-3-hydroxybutan-2-yl)acetamide] |  | 12.21 ×10⁻⁶ cm/s and 18.32 ×10⁻⁶ cm/s | 
CC(=O)NC(Cc1cc(F)cc(F)c1)C(O)CNC1(c2cccc(-n3cccn3)c2)CC1 (centres unmarked) [Example 23.12, N-(4-(1-(3-(1H-pyrazol-1-yl)phenyl)cyclopropylamino)-1-(3,5-difluorophenyl)-3-hydroxybutan-2-yl)acetamide] |  | 16.29 ×10⁻⁶ cm/s | 
CC(=O)NC(Cc1cc(F)cc(F)c1)C(O)CNC1(c2cccc(-n3cccn3)c2)CC1 (centres unmarked) [Example 23.18, N-(4-(1-(3-(1H-pyrazol-1-yl)phenyl)cyclopropylamino)-1-(3,5-difluorophenyl)-3-hydroxybutan-2-yl)acetamide] |  | 8.78 ×10⁻⁶ cm/s | 
CC(=O)NC(Cc1cc(F)cc(F)c1)C(O)CNC1(c2cccc(-n3cccn3)c2)CC1 (centres unmarked) [Example 23.27, N-(4-(1-(3-(1H-pyrazol-1-yl)phenyl)cyclopropylamino)-1-(3,5-difluorophenyl)-3-hydroxybutan-2-yl)acetamide] |  | 16.35 ×10⁻⁶ cm/s | 
CC(=O)NC(Cc1cc(F)cc(F)c1)C(O)CNC1(c2cccc(C(C)C(F)(F)F)c2)CC1 (centres unmarked) [Example 23.28, N-(1-(3,5-difluorophenyl)-3-hydroxy-4-(1-(3-(1,1,1-trifluoropropan-2-yl)phenyl)cyclopropylamino)butan-2-yl)acetamide] |  | 19.62 ×10⁻⁶ cm/s | Papp A→B at 2 h, 5 μM [4]: 12.6 ×10⁻⁶ cm/s
CC(=O)NC(Cc1cc(F)cc(F)c1)C(O)CNC1(c2cccc(-n3cccn3)c2)CC1C(C)C (centres unmarked) [Example 23.54, N-(4-(1-(3-(1H-pyrazol-1-yl)phenyl)-2-isopropylcyclopropylamino)-1-(3,5-difluorophenyl)-3-hydroxybutan-2-yl)acetamide] |  | 14.8 ×10⁻⁶ cm/s | Papp A→B at 2 h, 5 μM [4]: 11.4 ×10⁻⁶ cm/s
CCC1CC1(NCC(O)C(Cc1cc(F)cc(F)c1)NC(C)=O)c1cccc(-n2cccn2)c1 (centres unmarked) [Example 23.55, N-(4-(1-(3-(1H-pyrazol-1-yl)phenyl)-2-ethylcyclopropylamino)-1-(3,5-difluorophenyl)-3-hydroxybutan-2-yl)acetamide] |  | 14.1 ×10⁻⁶ cm/s and 9.2 ×10⁻⁶ cm/s | Papp A→B at 2 h, 5 μM [4]: 18.4 ×10⁻⁶ cm/s
CNCC[C@@H](Oc1ccccc1C)c1ccccc1 [atomoxetine] |  |  | in vivo P-gp efflux (Pmdr1/PFVB) [5]: 1.17
